The experiment has as its system brain mitochondria. Nature of the experiment: Brain (hypothalamus) mitochondrial morphology, citrate synthase staining. The following applies: single oral dose 120 mg/kg, HFD-fed mice. The class given is in vivo, mouse. How it is done: Preventing mitochondrial fission in the liver improves insulin sensitivity in mice with diet-induced obesity, while blocking fission in anorexigenic hypothalamic POMC neurons reduces food intake by restoring leptin sensitivity (A. Santoro, et al., 2017; and M. Schneeberger, et al., 2013, cited supra). To determine whether sphingolipid-like compound 893 was also effective in the hypothalamus, mitochondrial morphology was assessed in the brains of the same mice evaluated in FIG. 13. Due to the increased time required to remove the organ, brain mitochondria were visualized in fixed tissues by immunofluorescence microscopy rather than by NADH/NADPH autofluorescence. […] Sphingolipid-like compound 893 reversed these HFD-induced changes in mitochondrial morphology in the brains of 3 out of 4 animals examined (FIG. 14). […]
MEFs were washed twice with PBS and fixed with 4% paraformaldehyde for 10 min at RT. […] NADH/NADPH autofluorescence was detected with 740 nm excitation and 450±50 nm detectors using a Mai Tai two-photon laser. Fluorescence microscopy was performed on a Zeiss LSM 780 confocal using a 63× oil objective with a […] numerical aperture (NA) or using a Nikon TE2000-S inverted epifluorescence microscope with a 100× oil objective (1.3 NA) and a Photometrics CoolSNAP ES2 monochrome CCD camera. […]

With `CCCCCCCCc1ccc([C@H]2CCN[C@@H]2CO)cc1.Cl` [compound 893], the “Animals with reversal of HFD-induced changes in brain mitochondrial morphology” value is on record as 3 out of 4.

The values above are taken from patent US20220409617A1, “Drug Formulations and Methods of Treatment for Metabolic Disorders” (The Regents of the University of California, priority 2019, published 2022).
